Test results from publication PMC3408433, “Selective Cytotoxicity of Amidinopiperidine Based Compounds Towards Burkitt’s Lymphoma Cells Involves Proteasome Inhibition” (PLoS ONE, 2012).

Legend:
[1] = tested on: peripheral blood mononuclear cells (PBMC); experiment: Metabolic activity assay (MTS), PBMC; type: cell-based, human; conditions: 50 µM, 24 h
Description: (§1) Compounds 11, and 14–16 were further tested for selective cytotoxicity. The experiments were conducted on freshly isolated primary peripheral blood mononuclear cells (PBMC) and three other haematological cancers: human T cell leukaemia (Jurkat), human histiocytic lymphoma (U937) and human Burkitt’s lymphoma (Daudi). An MTS assay was performed following 24 h of treatment with the compound of interest at 50 µM. […] The inhibition of proliferation in Ramos cells, mediated with compounds 15 and 16, was concentration dependent.
(§2) Cells (1×10^5 cells/mL for Ramos, Daudi, U937 and Jurkat, and 1×10^6 cells/mL for PBMC) were treated with the appropriate amounts of compounds of interest or corresponding vehicle (control cells), then seeded in triplicate in 96 well plates. The metabolic activity was assessed using the CellTiter 96® Aqueous One Solution Cell Proliferation Assay (Promega, Madison/WI, USA), in accordance with the manufacturer’s instructions.

[2] = tested on: human T cell leukaemia (Jurkat); experiment: Metabolic activity assay (MTS), Jurkat; type: cell-based; conditions: 50 µM, 24 h
Description: as §1, §2

[3] = tested on: human Burkitt’s lymphoma (Daudi); experiment: Metabolic activity assay (MTS), Daudi; type: cell-based; conditions: 50 µM, 24 h
Description: as §1, §2

Ramos cells [4] = experiment: Cell cycle analysis (PI staining); type: cell-based, human; conditions: for cell cycle distribution / percentage of cells in the sub-G1 phase (< 2n): 50 µM, 24 h; for percentage of cells in the sub-G1 phase (< 2n): PI staining; for number of hypodiploid cells: 48 h treatment, untreated 3.4%
Description: Ramos cells (5×10^5 cells) were treated with the compound of interest for 24 h. The cells were then washed with PBS and subjected to fixation with 80% ethanol at –20°C for 15 min. Fixated cells were pelleted by centrifugation and rehydrated in 5 mL of PBS for 15 min at room temperature. Collected cells were resuspended in 500 µL staining buffer (3 µM propidium iodide, 100 mM Tris, pH 7.4, 150 mM NaCl, 1 mM CaCl2, 0.5 mM MgCl2, 0.1% Nonident P-40). After 15 min of incubation, samples were analysed on a FACScalibur and evaluated using FlowJo software (BD bioscience, Franklin Lakes/NJ, USA).

Ramos cells [5] = experiment: Annexin V/7-AAD assay; type: cell-based, human; conditions: 16 h; for percentage of Annexin V positive cells: 50 µM, untreated 4% (Figure 5A)
Description: We used a PE Annexin V Apoptosis Detection Kit I (BD Biosciences) in accordance with the manufacturer’s instructions. Put briefly, Ramos cells were, following their treatment with the compound of interest, washed with cold PBS and resuspended in 1× binding buffer at a […] concentration. 100 µL of cell suspension was transferred to a 5 mL tube and 5 µL of both PE Annexin V and 7-AAD was added. The suspension was gently vortexed and incubated for 15 min at room temperature in the dark. Following this, 400 µL of 1× binding buffer was added and samples were analysed using a FACScalibur flow cytometer.

[6] = tested on: procaspase-3 cleavage in Ramos cells; experiment: Western blot analysis of caspase-3 processing; type: cell-based, human; conditions: compound 50 µM, zVad-fmk 50 µM
Description: Ramos cells were seeded in 6-well culture plates at a concentration of 1×10^6 cells/mL and treated with the compound of interest or corresponding vehicle for 1 h, 2 h or 6 h. After the indicated time points, cells were harvested, washed in ice-cold PBS and lysed in modified RIPA buffer (50 mM Tris-HCl, pH 7.4, 150 mM NaCl, 1% NP−40, 0.25% Na-deoxycholate, 1 mM EDTA, 1 µg/mL aprotinin, 1 mM PMSF and 1× Halt Phosphatase inhibitor cocktail (Thermo Scientific, Pierce Biotechnology, IL, USA)). The lysates were sonicated, rocked on ice for 30 min and centrifuged at 13,000 rpm at 4°C for 15 min. Protein samples were electrophoresed in SDS-polyacrylamide gels and then transferred to nitrocellulose membranes. The primary antibodies used were against ubiquitin, phospho-IκBα, IκBα, p65 and caspase-3 (Cell Signaling, Danvers/MA, USA), and p105/p50 (Santa Cruz Biotechnology, Inc., Santa Cruz/CA, USA), and ß-actin (Sigma-Aldrich). Following incubation with the primary antibody, membranes were washed six times and incubated for 1 h at room temperature with the corresponding dilution of the appropriate secondary antibody conjugated with horseradish peroxidase (Upstate, Temecula, CA, USA). The immunoreactivity of respective proteins of interest was determined by chemiluminescence using the SuperSignal West Femto substrate (Pierce, IL, USA), in accordance with the manufacturer's instructions. […]

[7] = target: T1, chymotrypsin-like activity of human 20S proteasome (Homo sapiens, UniProt P28074); experiment: Proteasome activity measurement, chymotrypsin-like; type: biochemical; conditions: purified human 20S proteasome, Suc-Leu-Leu-Val-Tyr-AMC, uncompetitive
T1 construct: purchased Boston Biochem, Inc
Description: (§3) Suc-Leu-Leu-Val-Tyr-AMC, Bz-Val-Gly-Arg-AMC and Z-Leu-Leu-Glu-AMC (Bachem, Bubendorf, Switzerland) were used for the chymotrypsin-like, trypsin-like and caspase-like activites, respectively. Assay buffer consisted of TE buffer (20 mM Tris (pH = 8.0), 0.5 mM EDTA, 0.03% SDS). Substrate hydrolysis was continuously monitored at 37°C with an automated microplate reader (Tecan Safire^2). Measured fluorescence values (RFU) were plotted versus time with nonlinear regression to fit a Michaelis-Menten plot.
(§4) For the Ki determination, 25 µL of substrate at three concentrations and 25 µL of inhibitor of interest also at three different concentrations were added to the wells of a white microplate. The reaction was initiated with 50 µL of the enzyme in the assay buffer. Flourescence of the AMC release was continuously monitored at 420 nm with 320 nm excitation.
(§5) Km and Ki were calculated using SigmaPlot 11 (Enzyme Kinetics Module 1.3) and are presented as the mean of three independent experiments.

[8] = target: T2, trypsin-like activity of human 20S proteasome (Homo sapiens, UniProt Q99436); experiment: Proteasome activity measurement, trypsin-like; type: biochemical; conditions: for Ki: purified human 20S proteasome, Bz-Val-Gly-Arg-AMC, non-competitive
T2 construct: purchased Boston Biochem, Inc
Description: as §3, §4, §5

[9] = target: T3, caspase-like activity of human 20S proteasome (Homo sapiens, UniProt P28072); experiment: Proteasome activity measurement, caspase-like; type: biochemical; conditions: purified human 20S proteasome, Z-Leu-Leu-Glu-AMC, uncompetitive
T3 construct: purchased Boston Biochem, Inc
Description: as §3, §4, §5

20S proteasome = target: T4, 20S proteasome (Homo sapiens, UniProt P28072+P28074+Q99436); experiment: Rapid dilution assay (reversibility); type: biochemical
T4 construct: purchased Boston Biochem, Inc
Description: The enzyme-inhibitor complex was diluted 100-fold with the substrate of interest to a final volume of 200 µL, initiating the reaction. In the case of reversibility of the inhibitor the residual enzyme activity was expected to be around 90%.

[10] = tested on: Ramos Burkitt’s lymphoma cells; experiment: Metabolic activity assay (MTS), Ramos; type: cell-based; conditions: Homo sapiens, 24 h, read-out: IC50, inhibition of proliferation (metabolic activity)
α-chymotrypsin = α-chymotrypsin (Bos taurus, UniProt P00766); experiment: α-Chymotrypsin inhibition assay
Description: In short, a 1 nM solution of α-chymotrypsin was mixed with various concentrations of the substrate Suc-Ala-Ala-Pro-Phe-AMC. All the solutions were prepared in 144 mM Tris–HCl, pH 7.8. Substrate hydrolysis was monitored at 30°C on an automated Tecan Safire^2 microplate reader (Tecan, Mannedorf/Zürich, Switzerland). The initial rates of the reactions (ΔF/Δt) were measured immediately after the addition of the substrate (within 200 s) and plotted versus substrate concentration with nonlinear regression to fit a Michaelis-Menten plot. The curve fit and kinetic parameters (Km and v max) were calculated using GraphPad PRISM version 5.0 software (GraphPad Software, Inc., CA, USA). […] The initial velocities of the hydrolysis reactions were measured under the same conditions as described for the determination of Km. 50 µl of α-chymotrypsin solution was added to 50 µl of each inhibitor solution (prepared in 144 mM Tris–HCl, pH 7.8; final concentration 1 nM) and incubated at 30°C for 15 min. The reaction was initiated with the addition of 100 µl of substrate. […] The Ki values were determined as mean values of all measurements.

[11] = presence of zVADfmk 50 µM (Figure 5D)

N=C(N)N1CCC(CN(NS(=O)(=O)c2ccc3ccccc3c2)C(=O)N2CCCCCC2)CC1 [Compound 16]
residual metabolic activity relative to control [1]: no or only moderate decreases | residual metabolic activity relative to control [2]: no or only moderate decreases | residual metabolic activity relative to control [3]: severe and selective decrease | cell cycle distribution (Ramos cells [4]): accumulation of cells in the S phase | percentage of cells in the sub-G1 phase (< 2n) (Ramos cells [4]): 22.7% | number of hypodiploid cells (Ramos cells [4]): 51.1% | percentage of Annexin V positive cells (Ramos cells [5]): 39% | Annexin V positive cells (lower right quadrant) (Ramos cells [5]; absence of zVADfmk (Figure 5D)): 30% | living cells (lower left quadrant, Annexin V/7-AAD) (Ramos cells [5]; absence of zVADfmk (Figure 5D)): 62% | Annexin V positive cells (lower right quadrant) (Ramos cells [5]; [11]): 11% | living cells (lower left quadrant, Annexin V/7-AAD) (Ramos cells [5]; [11]): 82% | compound-induced procaspase-3 cleavage after zVad-fmk pretreatment [6]: completely blocked | Ki ' chymotrypsin-like activity [7]: Ki ' = 37±13 µM | mode of inhibition, trypsin-like activity ([8]; SigmaPlot 11): non-competitive | Ki [8]: 17 µM | Ki ' caspase-like activity [9]: Ki ' = 70±3 µM | reversibility of proteasome inhibition (20S proteasome): reversibly inhibit | IC50 [10]: 22 µM | Ki (α-chymotrypsin): 28.7 µM

N=C(N)N1CCC(CN(NS(=O)(=O)c2ccc3ccccc3c2)C(=O)N2CCCCC2)CC1 [Compound 15]
residual metabolic activity relative to control [1]: no or only moderate decreases | residual metabolic activity relative to control [2]: no or only moderate decreases | residual metabolic activity relative to control [3]: severe and selective decrease | cell cycle distribution (Ramos cells [4]): accumulation of cells in the S phase | percentage of cells in the sub-G1 phase (< 2n) (Ramos cells [4]): 8.7% | number of hypodiploid cells (Ramos cells [4]): 42.5% | percentage of Annexin V positive cells (Ramos cells [5]): 57% | compound-induced procaspase-3 cleavage after zVad-fmk pretreatment [6]: completely blocked | Ki ' chymotrypsin-like activity [7]: Ki ' = 84±15 µM | Ki [8]: 13 µM | Ki ' caspase-like activity [9]: Ki ' = 165±26 µM | reversibility of proteasome inhibition (20S proteasome): reversibly inhibit | IC50 [10]: 18 µM | Ki (α-chymotrypsin): 27.6 µM
